Laboratory results from patent publication US20210322582A1, “RADIOACTIVE IMIDAZOTHIADIAZOLE DERIVATIVE COMPOUND” (Nihon Medi-Physics Co., Ltd., priority 2018, published 2021).

Experiments:
[1] = test system: CA-IX-negative MDA-MB-231 cells; assay: In vitro CA-IX affinity and specificity, cell binding, cells lysed at room temperature (Example 11); assay type: cell-based; settings: AZ 50 μM, 21% or 1% oxygen, lysis at room temperature
Protocol: (§1) HT-29 cells (purchased from Dainippon Sumitomo Pharma Co., Ltd.) and MDA-MB-231 cells (purchased from Dainippon Sumitomo Pharma Co., Ltd.) were incubated in a 12-well plate (2.0×10^5 cells/well) at 37° C. for 24 hours under an atmosphere of 5% carbon dioxide and 21% oxygen, and then further incubated at 37° C. for 24 hours under an atmosphere of 5% carbon dioxide and 21% or 1% oxygen. After the culture medium was removed, Dulbecco's modified Eagle's medium (DMEM, 1 mL) containing[^111In]ITDA1 (14 kBq), [^111In]ITDA2 (26 kBq), or [^111In]ITDA3 (37 kBq) was added to each well, and then the incubation was performed at 37° C. for 2 hours under an atmosphere of 5% carbon dioxide and 21% or 1% oxygen. In addition, a separate plate was incubated in a similar manner as in the above except that acetazolamide (AZ, 50 μM) was added to [^111In]ITDA1 (14 kBq), [^111In]ITDA2 (26 kBq), or [^111In]ITDA3 (37 kBq) as a competitive compound for CA-IX. After that, each well was washed with 1 mL of phosphate-buffered saline (PBS, pH 7.4) (manufactured by NACALAI TESQUE, INC.), and the cells were lysed at room temperature in an aqueous solution of 1 N sodium hydroxide ([^111In]ITDA1: 0.25 mL×2, [^111In]ITDA2: 0.5 mL×2, and [^111In]ITDA3: 0.2 mL×2). The amount of radioactivity bound to the cells was measured by a gamma counter (model name: Wallac 1470 Wizard, PerkinElmer, Massachusetts, made in U.S.A., the same applies to the following examples).
(§2) FIG. 3A is a graph showing whether or not the affinity of compound [^111In]ITDA1 for CA-IX in each of the HT-29 cells and the MDA-MB-231 cells is inhibited by the coexistence of acetazolamide (AZ). Further, FIG. 3B is a graph showing whether or not the affinity of compound [^111In]ITDA2 for CA-IX in each of the HT-29 cells and the MDA-MB-231 cells is inhibited by the coexistence of acetazolamide (AZ). Moreover, FIG. 3C is a graph showing whether or not the affinity of compound [^111In]ITDA3 for CA-IX in each of the HT-29 cells and the MDA-MB-231 cells is inhibited by the coexistence of acetazolamide (AZ).

[2] = test system: CA-IX-positive HT-29 cells; assay: as above; assay type: cell-based; settings: for Inhibition of cell binding by acetazolamide: HT-29 cells, AZ 50 μM, 21% or 1% oxygen, lysis at room temperature; for Selectivity of binding to CA-IX: HT-29 vs MDA-MB-231 cells, room temperature lysis
Protocol: as §1, §2

[3] = 1-octanol/PBS (pH 7.4) partition coefficient; assay type: physicochemical
Protocol: The 1-octanol/PBS (pH 7.4) partition coefficients of [^111In]ITDA1 and [^111In]ITDA2, which were obtained in Example 6, and [^111In]ITDA3 obtained in Example 10 were measured.
The above two phases were saturated with each other in advance, and 1-octanol (3 mL) and PBS (3 mL) were pipetted into a 15-mL test tube containing [^111In]ITDA1 (37 kBq), [^111In]ITDA2 (37 kBq), or [^111In]ITDA3 (370 kBq). The test tube was vortexed for 2 minutes and centrifuged (4,000 g, 5 minutes). 0.5 mL was taken from each of the 1-octanol phase and the PBS phase, and transferred to two test tubes, respectively for measurement. The residual PBS phase (1 mL), and newly prepared 1-octanol (3 mL) and PBS (2 mL) were pipetted into a new test tube. The amount of radioactivity in each test tube was measured by using a gamma counter. The partition coefficient was calculated by using the equation log Pow=log10[count1-octanol/countPBS]. As a result, the log Pow of [^111In]ITDA1 was −3.72±0.05, the log Pow of [^111In]ITDA2 was −2.32±0.01, and the log Pow of [^111In]ITDA3 was −3.47±0.09.

[4] = In vitro stability in mouse plasma; assay type: in vitro ADME; settings: 37° C.; for Stability in mouse plasma: 24-hour incubation; for Stability (intact (%)): mouse plasma
Protocol: Blood was collected from a ddy mouse (purchased from Shimizu Laboratory Supplies Co., Ltd.), and centrifuged (1,200 g, 10 minutes) in a venous blood collection tube (manufactured by Becton, Dickinson and Company). The blood plasma (200 μL) was separated, a saline solution (185 kBq) of [^111In]ITDA1, [^111In]ITDA2, or [^111In]ITDA3 was added into the blood plasma, and the obtained mixture was incubated at 37° C. for 1, 4, 8, and for 24 hours (n=3). Further, into the incubated mixture, acetonitrile (200 μL) was added, and then the mixture was centrifuged (10,000 g, 5 minutes), the supernatant was filtered with COSMONICE Filter (S) (0.45 μm, 4 mm) (manufactured by NACALAI TESQUE, INC.), and the filtrate was analyzed by RP-HPLC under the following conditions. In this regard, the intact % in FIGS. 4A and 4B was determined from the area percentage of the RP-HPLC elution pattern.
Column: Cosmosil Cis column (5C18-PAQ, 4.6×250 mm)
Mobile phase: water/acetonitrile/trifluoroacetic acid (90: 10: 0.1 (0 min)→60: 40: 0.1 (30 min)), and flow rate for analysis: 1.0 mL/min

[5] = test system: CA-IX-negative MDA-MB-231 cells; assay: In vitro CA-IX affinity and specificity, cell binding, cells lysed at 37° C. (Example 18); assay type: cell-based; settings: for Inhibition of cell binding by acetazolamide: MDA-MB-231 cells, normoxic and hypoxic, lysis at 37° C.
Protocol: as §1
(§3) Example 18 was performed similarly as in Example 11 except that the cells were lysed in a constant temperature water bath at 37° C. The accumulation of radioactivity in each cell was expressed by % initial dose/mg protein obtained by dividing the ratio of the amount of radioactivity bound to each cell to the added amount of radioactivity by the amount of cell protein.

[6] = test system: CA-IX-positive HT-29 cells; assay: as above; assay type: cell-based; settings: for Inhibition of cell binding by acetazolamide: HT-29 cells, normoxic and hypoxic; for Inhibition of cell binding by acetazolamide / Selectivity of binding to CA-IX: lysis at 37° C.; for Selectivity of binding to CA-IX: HT-29 vs MDA-MB-231 cells
Protocol: as §1, §3

[7] = 1% Oxygen AZ(+), acetazolamide 50 μM
[8] = 21% Oxygen AZ(+), acetazolamide 50 μM

Structure (SMILES)	Inhibition of cell binding by acetazolamide [1]	Inhibition of cell binding by acetazolamide [2]	Selectivity of binding to CA-IX [2]	log Pow [3]	Stability in mouse plasma [4]	Amount of binding to MDA-MB-231 cells [5, 7]	Amount of binding to MDA-MB-231 cells ([5]; 1% Oxygen AZ(−))	Amount of binding to MDA-MB-231 cells [5, 8]	Amount of binding to MDA-MB-231 cells ([5]; 21% Oxygen AZ(−))	Inhibition of cell binding by acetazolamide [5]	Amount of binding to HT-29 cells [6, 7]	Amount of binding to HT-29 cells ([6]; 1% Oxygen AZ(−))	Amount of binding to HT-29 cells [6, 8]	Amount of binding to HT-29 cells ([6]; 21% Oxygen AZ(−))	Inhibition of cell binding by acetazolamide [6]	Selectivity of binding to CA-IX [6]	other results
NS(=O)(=O)c1nn2cc(-c3ccc(NC(=O)CN4CCN(CC(=O)O)CCN(CC(=O)Nc5ccc(-c6cn7nc(S(N)(=O)=O)sc7n6)cc5)CCN(CC(=O)O)CC4)cc3)nc2s1.[111In+3] [[^111In]ITDA2, [^111In]indium(III)2,2′-(4,10-bis(2-oxo-2-((4-(2-sulfamoylimidazo[2,1-b][1,3,4]thiadiazol-6-yl)phenyl)amino)ethyl)-1,4,7,10-tetraazacyclododecan-1,7-diyl) diacetic acid]	the competitive inhibition was not observed	the inhibition was observed in the presence of acetazolamide	selectively bind to the CA-IX	−2.32±0.01	sufficient stability	0.7 ± 0.1 % initial dose/mg protein	2.9 ± 0.4 % initial dose/mg protein	1.4 ± 0.2 % initial dose/mg protein	2.5 ± 0.5 % initial dose/mg protein	the competitive inhibition was not observed	12.1 ± 3.7 % initial dose/mg protein	109.2 ± 6.7 % initial dose/mg protein	7.6 ± 2.3 % initial dose/mg protein	48.3 ± 5.9 % initial dose/mg protein	the inhibition was observed in the presence of acetazolamide	selectively bind to the CA-IX	–
NS(=O)(=O)c1nn2cc(-c3ccc(NC(=O)CCC(C(=O)O)N4CCN(CC(=O)[O-])CCN(CC(=O)[O-])CCN(CC(=O)[O-])CC4)cc3)nc2s1.[111In+3] (stereo not shown) [[^111In]ITDA3]	the competitive inhibition was not observed	the inhibition was observed in the presence of acetazolamide	selectively bind to the CA-IX	−3.47±0.09	–	0.1 ± 0.0 % initial dose/mg protein	2.0 ± 1.1 % initial dose/mg protein	0.2 ± 0.0 % initial dose/mg protein	0.5 ± 0.1 % initial dose/mg protein	the competitive inhibition was not observed	1.0 ± 0.1 % initial dose/mg protein	93.4 ± 16.0 % initial dose/mg protein	0.3 ± 0.0 % initial dose/mg protein	47.2 ± 6.8 % initial dose/mg protein	the inhibition was observed in the presence of acetazolamide	selectively bind to the CA-IX	Stability (intact %) in mouse plasma ([4]; incubation for 1 to 24 hours): ≥ 95%; Stability (intact (%)) ([4]; 1 h): 97.4 ± 0.8%; Stability (intact (%)) ([4]; 4 h): 99.0 ± 0.6%; Stability (intact (%)) ([4]; 8 h): 98.0 ± 0.1%; Stability (intact (%)) ([4]; 24 h): 98.8 ± 0.4%
NS(=O)(=O)c1nn2cc(-c3ccc(NC(=O)CN4CCN(CC(=O)O)CCN(CC(=O)O)CCN(CC(=O)O)CC4)cc3)nc2s1.[111In+3] [[^111In]ITDA1, [^111In]indium(III)2,2′,2″-(10-(2-oxo-2-((4-(2-sulfamoylimidazo[2,1-b][1,3,4]thiadiazol-6-yl)phenyl)amino)ethyl)-1,4,7,10-tetraazacyclododecan-1,4,7-triyl) triacetic acid]	the competitive inhibition was not observed	the inhibition was observed in the presence of acetazolamide	selectively bind to the CA-IX	−3.72±0.05	sufficient stability	0.1 ± 0.0 % initial dose/mg protein	6.5 ± 0.8 % initial dose/mg protein	0.1 ± 0.0 % initial dose/mg protein	1.4 ± 0.3 % initial dose/mg protein	the competitive inhibition was not observed	2.2 ± 0.5 % initial dose/mg protein	198.9 ± 5.7 % initial dose/mg protein	0.9 ± 0.2 % initial dose/mg protein	118.1 ± 21.4 % initial dose/mg protein	the inhibition was observed in the presence of acetazolamide	selectively bind to the CA-IX	–
